Results published in US8030043B2, “β-galactoside-α2,3-sialyltransferase, a gene encoding thereof, and a method for producing thereof” (Japan Tobacco Inc., priority 2005, dated 2011).

Legend:
[1] = tested on: α2,3-sialyltransferase derived from strain JT-ISH-467; assay: Sialic acid transfer to monosaccharides and disaccharides by partially purified α2,3-sialyltransferase (CMP-14C-NeuAc donor, radioactivity of column eluate); assay type: biochemical, Photobacterium phosphoreum; conditions: 25° C., 4 hours; acceptor 10 μmol (200 mM); CMP-14C-NeuAc 400 nmol; sialyltransferase 0.13 mU; NaCl 500 mM
Experimental: A cell homogenate prepared from the strain JT-ISH-467 was partially purified by ion exchange chromatography, hydroxyapatite chromatography, and gel filtration chromatography. The thus partially purified α2,3-sialyltransferase was used in the following experiment in order to confirm the transfer of sialic acid to various monosaccharides and disaccharides.
The enzymatic reaction was carried out at 25° C. for 4 hours in a reaction solution (24 μl) prepared to contain CMP-^14C-NeuAc as a glycosyl donor substrate (400 nmol (15600 cpm), final concentration in the reaction solution: 16.6 mM), any of various glycosyl acceptor substrates (10 μmol, final concentration in the reaction solution: 200 mM), sialyltransferase (0.13 mU) and NaCl (final concentration in the reaction solution: 500 mM). The monosaccharides and disaccharides used as glycosyl acceptor substrates were the following 6 substances: methyl-α-D-galactopyranoside (Gal-α-OMe), methyl-β-D-galactopyranoside (Gal-β-OMe), N-acetylgalactosamine (GalNAc), lactose (Gal-β1,4-Glc), N-acetyllactosamine (Gal-β1,4-GlcNAc), and methyl-β-D-galactopyranosyl-β-1,3-N-acetylglucosaminide (Gal-β1,3-GlcNAc-β-OMe).
(§1) After completion of the enzymatic reaction, 1.98 ml of 5 mM phosphate buffer (pH 6.8) was added to the reaction solution to stop the enzymatic reaction. Then, the enzymatic reaction solution was diluted with 5 mM phosphate buffer (pH 6.8) and applied in a volume of 2 ml to a AG1-×2 Resin (PO4^3− form, 0.2×2 cm) column. This column was prepared as follows: AG1-×2 Resin (OH^− form, BIO-RAD) was suspended in 1 M phosphate buffer (pH 6.8), and after 30 minutes, the resin was washed with distilled water and then suspended in distilled water. The eluate (0 to 2 ml) from this column was measured for its radioactivity. The eluate from this column contains the unreacted glycosyl acceptor substrate and the ^14C-NeuAc (N-acetylneuraminic acid)-bound reaction product which was generated by the reaction, but unreacted CMP-^14C-NeuAc is still retained on the column. Thus, the radioactivity of ^14C from each sialic acid-containing sugar chain generated as a result of the enzymatic reaction arises exclusively from the reaction product, so that the radioactivity of this fraction can be used to calculate the enzyme activity.
(§2) In the manner described above, the radioactivity of NeuAc transferred to each glycosyl acceptor substrate was measured to calculate the amount of transferred sialic acid.

[2] = tested on: ISH467-N2C0 recombinant β-galactoside-α2,3-sialyltransferase; assay: Acceptor substrate specificity of recombinant β-galactoside-α2,3-sialyltransferase (mono-, di-, trisaccharides); assay type: biochemical, Photobacterium phosphoreum
Text: (§3) Cell homogenates prepared from E. coli cells introduced with the third clone of ISH467-N2C0, the first clone of ISH224-N1C0 and the first clone of FAJ-N1C0 were each purified by ion exchange chromatography and hydroxyapatite chromatography to give an electrophoretically single band. The thus purified β-galactoside-α2,3-sialyltransferases were used in the following experiment in order to examine the presence or absence of sialyltransferase activity toward various monosaccharides, disaccharides and trisaccharides.
(§4) A reaction solution (24 μl) was prepared to contain CMP-^14C-NeuAc-containing CMP-NeuAc as a glycosyl donor substrate ([…], final concentration in the reaction solution: […]), any of various glycosyl acceptor substrates dissolved in 20 mM cacodylate buffer (pH 5.0) (1 μmol, final concentration in the reaction solution: 42 mM), sialyltransferase (in an amount as indicated in the footnotes of the tables below) and NaCl (final concentration in the reaction solution: 500 mM), and reacted under conditions as indicated in the footnotes of the tables below. The monosaccharides used as glycosyl acceptor substrates were the following 10 types: methyl-α-D-galactopyranoside (Gal-α-OMe), methyl-(β-D-galactopyranoside (Gal-β-OMe), methyl-α-D-glucopyranoside (Glc-α-OMe), methyl-β-D-glucopyranoside (Glc-β-OMe), methyl-α-D-mannopyranoside (Man-α-OMe), methyl-β-D-mannopyranoside (Man-β-OMe), methyl-α-D-fucopyranoside (Fuc-α-OMe), methyl-β-D-fucopyranoside (Fuc-β-OMe), N-acetylgalactosamine (GalNAc), and N-acetylglucosamine ([…]). The disaccharides used were the following 5 types: lactose (Gal-β1,4-Glc), N-acetyllactosamine (Gal-β1,4-GlcNAc), methyl-β-D-galactopyranosyl-β1,3-N-acetylglucosaminide (Gal-β1,3-GlcNAc-β-OMe), methyl-α-D-galactopyranosyl-α1,3-galactopyranoside (Gal-α-1,3-Gal-α-OMe), and methyl-β-D-galactopyranosyl-β1,3-galactopyranoside (Gal-β1,3-Gal-β-OMe). The trisaccharide used was 2′-fucosyllactose (Fuc-α1,2-Galβ1,4-Glc). It should be noted that the final concentration was set to 8.4 mM for the sugar chains shown in Table 18, i.e., methyl-α-D-galactopyranosyl-α1,3-galactopyranoside (Gal-α1,3-Gal-α-OMe), methyl-β-D-galactopyranosyl-β1,3-galactopyranoside (Gal-β1,3-Gal-β-OMe) and 2′-fucosyllactose (Fuc-α1,2-Gal-β1,4-Glc).
as §1, with “a AG1−×2” for “a AG1-×2”, “follows: AG1-x 2” for “follows: AG1-×2”, “unreacted CMP-14C-NeuAc” for “unreacted CMP-^14C-NeuAc”
as §2

[3] = tested on: ISH224-N1C0 recombinant β-galactoside-α2,3-sialyltransferase; assay: as above; assay type: biochemical, Photobacterium sp.
Text: as §3, §4
as §1, with “a AG1−×2” for “a AG1-×2”, “follows: AG1-x 2” for “follows: AG1-×2”, “unreacted CMP-14C-NeuAc” for “unreacted CMP-^14C-NeuAc”
as §2

[4] = tested on: FAJ-N1C0 recombinant β-galactoside-α2,3-sialyltransferase; assay: Acceptor substrate specificity of recombinant β-galactoside-α2,3-sialyltransferase (mono-, disaccharides); assay type: biochemical, Vibrio sp.; parameters: FAJ-N1C0 Sialyltransferase activity Relative activity (%): tested at 42 mM; conditions: 20° C., 14 hours
Text: as §3, §4
as §1, with “a AG1−×2” for “a AG1-×2”, “follows: AG1-x 2” for “follows: AG1-×2”, “unreacted CMP-14C-NeuAc” for “unreacted CMP-^14C-NeuAc”
as §2

[5] = Table 16: 1 μmol acceptor, pH 5.0, about 2.5 mU enzyme, 20° C., 14 hours
[6] = Table 16: activity toward lactose set to 100, 20° C., 14 hours
[7] = Table 17: activity toward lactose set to 100, 30° C., 0.5 minutes or 2 minutes

CO[C@@H]1O[C@H](CO)[C@@H](O)[C@H](O[C@@H]2O[C@H](CO)[C@H](O)[C@H](O)[C@H]2O)[C@H]1NC(C)=O [methyl-β-D-galactopyranosyl-β1,3-N-acetylglucosaminide]
Amount of transferred sialic acid [1]: 71.1 nmol | ISH467-N2C0 Sialyltransferase activity [2, 5]: 9.6 nmol/min | ISH467-N2C0 Sialyltransferase activity Relative activity (%) [2, 6]: 122% | ISH467-N2C0 Sialyltransferase activity ([2]; Table 17: 1 μmol acceptor, pH 5.0, 2.3 mU per reaction, 30° C., 0.5 minutes or 2 minutes): 2.95 nmol/min | ISH467-N2C0 Sialyltransferase activity Relative activity (%) [2, 7]: 129% | ISH224-N1C0 Sialyltransferase activity [3, 5]: 9.4 nmol/min | ISH224-N1C0 Sialyltransferase activity Relative activity (%) [3, 6]: 111% | ISH224-N1C0 Sialyltransferase activity ([3]; Table 17: 1 μmol acceptor, pH 5.0, 1.0 mU per reaction, 30° C., 0.5 minutes or 2 minutes): 1.98 nmol/min | ISH224-N1C0 Sialyltransferase activity Relative activity (%) [3, 7]: 192% | FAJ-N1C0 Sialyltransferase activity ([4]; Table 16: 1 μmol acceptor, pH 5.0, about 2.5 mU enzyme): 9.4 nmol/min | FAJ-N1C0 Sialyltransferase activity Relative activity (%) ([4]; Table 16: activity toward lactose set to 100): 124%
